The values that follow come from ChEMBL document CHEMBL1128536, “Tyrosine kinase inhibitors. 5. Synthesis and structure-activity relationships for 4-[(phenylmethyl)amino]- and 4-(phenylamino)quinazolines as potent adenosine 5'-triphosphate binding site inhibitors of the tyrosine kinase domain of the epidermal growth factor receptor” (J Med Chem, 1995).

In the first assay the target is T1, Epidermal growth factor receptor (Homo sapiens, UniProt P00533). As to the kind of experiment: Inhibition of Epidermal growth factor receptor from A431 cells.
T1 sequence (P00533 whole entry): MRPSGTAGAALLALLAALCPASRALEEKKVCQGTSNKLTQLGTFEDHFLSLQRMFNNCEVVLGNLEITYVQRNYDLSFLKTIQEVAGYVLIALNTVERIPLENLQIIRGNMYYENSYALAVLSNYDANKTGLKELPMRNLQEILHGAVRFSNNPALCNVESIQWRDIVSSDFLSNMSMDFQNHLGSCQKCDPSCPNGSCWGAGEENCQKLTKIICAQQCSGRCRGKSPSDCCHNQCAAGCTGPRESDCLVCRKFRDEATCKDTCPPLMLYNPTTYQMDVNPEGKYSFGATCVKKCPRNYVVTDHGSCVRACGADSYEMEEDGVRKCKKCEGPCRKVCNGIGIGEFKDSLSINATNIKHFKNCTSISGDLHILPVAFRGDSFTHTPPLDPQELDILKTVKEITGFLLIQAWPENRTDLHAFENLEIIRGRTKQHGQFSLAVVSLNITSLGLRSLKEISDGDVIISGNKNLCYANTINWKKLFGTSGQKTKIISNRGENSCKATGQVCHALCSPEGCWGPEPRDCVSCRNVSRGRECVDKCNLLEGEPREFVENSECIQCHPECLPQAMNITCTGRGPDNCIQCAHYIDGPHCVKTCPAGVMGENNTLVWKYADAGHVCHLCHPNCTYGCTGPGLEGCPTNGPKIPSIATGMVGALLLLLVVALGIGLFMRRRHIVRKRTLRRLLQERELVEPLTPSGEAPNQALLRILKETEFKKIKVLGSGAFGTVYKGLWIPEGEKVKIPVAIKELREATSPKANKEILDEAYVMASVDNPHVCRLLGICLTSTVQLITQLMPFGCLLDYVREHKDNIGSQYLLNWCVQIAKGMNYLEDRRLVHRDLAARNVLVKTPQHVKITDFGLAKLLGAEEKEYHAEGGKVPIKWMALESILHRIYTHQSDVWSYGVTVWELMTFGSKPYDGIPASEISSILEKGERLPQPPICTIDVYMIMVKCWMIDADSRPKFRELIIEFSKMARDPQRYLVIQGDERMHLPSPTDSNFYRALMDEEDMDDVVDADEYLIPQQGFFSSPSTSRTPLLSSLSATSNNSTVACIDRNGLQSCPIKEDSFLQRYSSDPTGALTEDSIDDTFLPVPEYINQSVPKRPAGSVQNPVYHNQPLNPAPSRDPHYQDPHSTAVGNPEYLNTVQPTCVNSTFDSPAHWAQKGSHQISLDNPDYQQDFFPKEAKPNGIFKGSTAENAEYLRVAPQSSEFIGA
As to `Nc1cccc2c(NCc3ccccc3)ncnc12`, the IC50 was > 10000 nM.
In the case of `COc1cccc2c(Nc3cccc(Br)c3)ncnc12`, the IC50 came to 974 nM.
Compound `c1ccc(CNc2ncnc3ccccc23)cc1` showed a concentration for half-maximal inhibition (IC50) of 320 nM.
As to `O=[N+]([O-])c1cccc2c(NCc3ccccc3)ncnc12`, the IC50 is > 10000 nM.
Still for that read-out and setting: the figure for `Oc1cc2ncnc(Nc3cccc(Br)c3)c2cc1O` is 0.17 nM; for `O=[N+]([O-])c1cccc2ncnc(Nc3cccc(Br)c3)c12` it is 355 nM.

A further assay has as its target T1, Epidermal growth factor receptor. Nature of the assay: Evaluation of inhibitory activity against phospholipase C-gamma1 phosphorylation by Epidermal growth factor receptor enzyme isolated from A431 cells.
Consider `Nc1cc2ncnc(Nc3cccc(Br)c3)c2cc1N`, for which half-maximal inhibition (IC50) was put at 0.12 nM.
In the case of `COc1cccc2c(NCc3ccccc3)ncnc12`, the concentration for half-maximal inhibition (IC50) was > 10000 nM.
Take `COc1cccc2ncnc(Nc3cccc(Br)c3)c12`: 139 nM corresponded to half-maximal inhibition (IC50).
`Cc1cccc(Nc2ncnc3ccccc23)c1` came in with an IC50 of 910 nM.
Still for that read-out and setting: the figure for `O=[N+]([O-])c1cccc2c(Nc3cccc(Br)c3)ncnc12` is > 10000 nM; for `Nc1cccc2ncnc(NCc3ccccc3)c12` it is > 10000 nM.
`CN(c1ccccc1)c1ncnc2ccccc12` yielded an IC50 of 100000 nM.
In the case of `Brc1cccc(Oc2ncnc3ccccc23)c1`, inhibition was half-maximal at 756 nM (IC50).
Same read-out and setting: the figure for `Brc1cccc(Nc2cnc3ccccc3n2)c1` is > 100000 nM; for `Brc1cccc(Nc2nccc3ccccc23)c1` it is > 100000 nM.
On to `O=[N+]([O-])c1ccc2c(NCc3ccccc3)ncnc2c1`, for which half-maximal inhibition (IC50) was put at 5900 nM.
`Nc1cccc2ncnc(Nc3cccc(Br)c3)c12`: the half-maximal inhibitory concentration (IC50) is 439 nM.
Compound `Brc1cccc(Nc2ccnc3ccccc23)c1` showed an IC50 of 5500 nM.
Take `COc1ccc2ncnc(NCc3ccccc3)c2c1`: the concentration for half-maximal inhibition (IC50) came out at 200 nM.
The compound `COc1ccc2ncnc(Nc3cccc(Br)c3)c2c1` showed an IC50 of 348 nM.
The compound `Nc1cccc2c(Nc3cccc(Br)c3)ncnc12` showed an IC50 of 105 nM.
In turn, `Nc1ccc2ncnc(NCc3ccccc3)c2c1` returned an IC50 of 1400 nM.
In turn, `O=[N+]([O-])c1cccc2ncnc(NCc3ccccc3)c12` had an IC50 of 8000 nM.
`c1ccc(CCNc2ncnc3ccccc23)cc1`: the half-maximal inhibitory concentration (IC50) came to 4100 nM.
`COc1cc2ncnc(NCc3ccccc3)c2cc1O` registered an IC50 of 56 nM.
Still for that read-out and setting: then `Clc1ccc(CNc2ncnc3ccccc23)cc1`, with 7000 nM; and `COc1ccc2c(Nc3cccc(Br)c3)ncnc2c1`, with 10 nM; and `COc1ccc2c(NCc3ccccc3)ncnc2c1`, with 58 nM.
Still for that read-out and setting: the figure for `O=[N+]([O-])c1ccc2c(Nc3cccc(Br)c3)ncnc2c1` is 1000 nM.
On the same count and under the same terms, then `O=[N+]([O-])c1ccc2ncnc(Nc3cccc(Br)c3)c2c1`, with 897 nM; and `Brc1cccc(Nc2cnnc3ccccc23)c1`, with > 10000 nM; and `COc1cc2c(NCc3ccccc3)ncnc2cc1O`, with 588 nM.
As to `Brc1cccc(Nc2nnnc3ccccc23)c1`, the IC50 is > 1000 nM.
Compound `FC(F)(F)c1cccc(Nc2ncnc3ccccc23)c1` registered a 50% inhibitory concentration (IC50) of 577 nM.
Still for that read-out and setting: then `COc1ccc(CNc2ncnc3ccccc23)cc1`, with 10000 nM.
Same read-out and setting: then `O=[N+]([O-])c1ccc2ncnc(NCc3ccccc3)c2c1`, with > 10000 nM; and `Ic1cccc(Nc2ncnc3ccccc23)c1`, with 80 nM; and `COc1cccc2ncnc(NCc3ccccc3)c12`, with 4900 nM.
For the compound `Brc1cccc(Nc2nncc3ccccc23)c1`, the IC50 was > 100000 nM.
Same read-out and setting: then `Clc1cccc(Nc2ncnc3ccccc23)c1`, with 23 nM; and `Nc1ccc2c(NCc3ccccc3)ncnc2c1`, with > 1000 nM.
Compound `COc1cc2ncnc(NCc3ccccc3)c2cc1OC` came in with a half-maximal inhibitory concentration (IC50) of 10 nM.

The IC50 is the concentration needed to halve the response being measured. A higher IC50 goes with a need for much substance.
